One experiment concerns CYP2C11 and CYP3A2. The note with it: read-out: K m (μmol/L); NADPH-regenerating system; pH 7.4; 37 °C; apparent Km; homogenate, mixed CYPs assigned by anti-CYP antibodies. An excerpt: desipramine (N-demethylate) formation in cell homogenate, HPLC-UV on CYP2C11 and CYP3A2
Experiment [1] concerns T1, FMO (flavin-containing monooxygenase).
T1 construct: gene Fmo1; native, homogenate of cultured thoracic aortic endothelial cells; FMO isoform not resolved
As to the kind of experiment: imipramine N-oxide formation in cell homogenate, HPLC-UV. The format is biochemical, Rattus norvegicus. The note with it: NADPH-regenerating system, pH 7.4, 37 °C, apparent Km, FMO isoform unresolved. An excerpt: imipramine N-oxide formation in cell homogenate, HPLC-UV on FMO (flavin-containing monooxygenase)

For experiment [2] the test system is unchanged. Kind of experiment: inhibition of imipramine N-oxidation in cell homogenate, HPLC-UV. The format is biochemical, Rattus norvegicus. The note with it: competitive with imipramine, methimazole 1 μmol/L, NADPH-regenerating system, 37 °C, FMO isoform unresolved, read-out: apparent K i.

With `CN(C)CCCN1c2ccccc2CCc2ccccc21` [imipramine], the Km in the experiment on CYP2C11 and CYP3A2 turned out to be 39.9 ± 5.3 µmol/L; in experiment [1], 20 ± 4.5 µM.

Consider `Cn1cc[nH]c1=S` [methimazole], for which, in experiment [2], the Ki worked out at 800 nM.

Values taken from paper PMC4062819, “N-Demethylation and N-oxidation of imipramine in rat thoracic aortic endothelial cells” (In Vitro Cellular & Developmental Biology. Animal, 2014).
